The values that follow come from patent US20240190860A1, “8-CYCLO-SUBSTITUTED QUINAZOLINE DERIVATIVES AS LPA RECEPTOR 2 INHIBITORS” (CHIESI FARMACEUTICI S.p.A., priority 2021, published 2024).

For the test, the target named is T1, human recombinant LPA2 expressed in CHO cells (Homo sapiens, UniProt Q9HBW0).
T1 construct: expressed in transfected cells; host or cells: CHO cells (CHO-hLPA2 cell line)
The test can be described thus: FLIPR calcium mobilization assay, LPA2 antagonism in CHO-hLPA2 cells. The class given is cell-based. The conditions noted are these: CHO-hLPA2 cells, inhibition of LPA EC80 Ca2+ response, 30 min pre-incubation; read-out: LPA2 IC50. A digest of the protocol: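 Antagonist potency from four-parameter logistic fit (pIC50) of % inhibition of peak Ca2+ signal evoked by an EC80 LPA challenge. Before challenge, hLPA2-CHO cells were dye-loaded (5 μM Cal-520 AM, 2.5 mM probenecid, pH 7.4 HEPES buffer, 30 min, 37° C) and exposed 30 min to compound at 11 concentrations, 0.5% DMSO final.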
For orientation: Calcium assays in cells follow changes in intracellular calcium, usually with a dye or a luminescent sensor.

One may read the IC50 as the concentration that inhibits the measured activity by half.

T1 sequence (Q9HBW0 whole entry): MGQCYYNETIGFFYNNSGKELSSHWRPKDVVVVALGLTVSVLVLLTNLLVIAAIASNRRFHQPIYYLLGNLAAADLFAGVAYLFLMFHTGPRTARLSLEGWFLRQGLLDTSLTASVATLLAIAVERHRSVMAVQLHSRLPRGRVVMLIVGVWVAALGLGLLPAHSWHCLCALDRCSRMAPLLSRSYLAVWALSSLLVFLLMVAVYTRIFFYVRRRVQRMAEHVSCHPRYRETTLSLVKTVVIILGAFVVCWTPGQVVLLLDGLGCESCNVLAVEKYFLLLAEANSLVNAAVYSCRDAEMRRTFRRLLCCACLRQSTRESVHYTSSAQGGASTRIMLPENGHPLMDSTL

On to `C[C@@H](CN1CCN(S(=O)(=O)c2ccc3[nH]c(=O)sc3c2)CC1)Nc1ncnc2c(-c3cccc(CN(C)C)c3)cccc12` [Example 45, 6-({4-[(2S)-2-[(8-{3-[(dimethylamino)methyl]phenyl}quinazolin-4-yl)amino]propyl]piperazin-1-yl}sulfonyl)-2,3-dihydro-1,3-benzothiazol-2-one], for which the IC50 was < 10 nM.

`COC(=O)Nc1nc(C)c(S(=O)(=O)N2CCN(C[C@H](C)Nc3ncnc4c(-c5cncc(N6CCN(C)CC6)c5)cccc34)CC2)s1` [Example 67, methyl N-[4-methyl-5-({4-[(2S)-2-({8-[5-(4-methylpiperazin-1-yl)pyridin-3-yl]quinazolin-4-yl}amino)propyl]piperazin-1-yl}sulfonyl)-1,3-thiazol-2-yl]carbamate]: the IC50 is < 10 nM.

As for `COC(=O)Nc1nc(C)c(S(=O)(=O)N2CCN(C[C@H](C)Nc3ncnc4c(C5CC5)cccc34)CC2)s1` [Example 41, methyl N-[5-({4-[(2S)-2-[(8-cyclopropylquinazolin-4-yl)amino]propyl]piperazin-1-yl}sulfonyl)-4-methyl-1,3-thiazol-2-yl]carbamate], the IC50 fell in the range of 10 to 100 nM. Next, `Cc1nc(NC(=O)CN(C)C)sc1S(=O)(=O)N1CCN(C[C@H](C)Nc2ncnc3c(-c4cn(C)nc4C(F)(F)F)cccc23)CC1` [Example 86, 2-(dimethylamino)-N-[4-methyl-5-({4-[(2S)-2-({8-[1-methyl-3-(trifluoromethyl)-1H-pyrazol-4-yl]quinazolin-4-yl}amino)propyl]piperazin-1-yl}sulfonyl)-1,3-thiazol-2-yl]acetamide]: < 10 nM.

Consider `Cc1cc(-c2ccc(S(=O)(=O)N3CCN(C[C@H](C)Nc4ncnc5c(-c6cnc(C(F)(F)F)s6)cccc45)CC3)s2)on1` [Example 15, N-[(2S)-1-(4-{[5-(3-methyl-1,2-oxazol-5-yl)thiophen-2-yl]sulfonyl}piperazin-1-yl)propan-2-yl]-8-[2-(trifluoromethyl)-1,3-thiazol-5-yl]quinazolin-4-amine], for which the IC50 is < 1000 nM.

As to `CC(=O)N1CCc2cc(S(=O)(=O)N3CCN(C[C@H](C)Nc4ncnc5c(-c6cccnc6)cccc45)CC3)ccc21` [Example 43, 1-[5-({4-[(2S)-2-{[8-(pyridin-3-yl)quinazolin-4-yl]amino}propyl]piperazin-1-yl}sulfonyl)-2,3-dihydro-1H-indol-1-yl]ethan-1-one], the IC50 is < 10 nM. As for `C[C@@H](CN1CCN(S(=O)(=O)c2ccc3[nH]c(=O)sc3c2)CC1)Nc1ncnc2c(-c3cn(C)nc3C(F)(F)F)cccc12` [Example 79, 6-({4-[(2S)-2-({8-[1-methyl-3-(trifluoromethyl)-1H-pyrazol-4-yl]quinazolin-4-yl}amino)propyl]piperazin-1-yl}sulfonyl)-2,3-dihydro-1,3-benzothiazol-2-one], the IC50 was < 10 nM. Next, `Cc1ccc(-c2cccc3c(N[C@@H](C)CN4CCN(S(=O)(=O)c5ccc6[nH]c(=O)sc6c5)CC4)ncnc23)cn1` [Example 78, 6-({4-[(2S)-2-{[8-(6-methylpyridin-3-yl)quinazolin-4-yl]amino}propyl]piperazin-1-yl}sulfonyl)-2,3-dihydro-1,3-benzothiazol-2-one]: 10 to 100 nM.

For `Cc1cc(-c2ccc(S(=O)(=O)N3CCN(C[C@H](C)Nc4ncnc5c(-c6ccccn6)cccc45)CC3)s2)on1` [Example 12, N-[(2S)-1-(4-{[5-(3-methyl-1,2-oxazol-5-yl)thiophen-2-yl]sulfonyl}piperazin-1-yl)propan-2-yl]-8-(pyridin-2-yl)quinazolin-4-amine], the half-inhibitory concentration (IC50) was < 10 nM. Turning to `C[C@@H](CN1CCN(S(=O)(=O)c2ccc3[nH]c(=O)sc3c2)CC1)Nc1ncnc2c(-c3cccnc3)cccc12` [Example 38, 6-({4-[(2S)-2-{[8-(pyridin-3-yl)quinazolin-4-yl]amino}propyl]piperazin-1-yl}sulfonyl)-2,3-dihydro-1,3-benzothiazol-2-one], the half-maximal inhibitory concentration (IC50) was < 10 nM.

Consider `Cc1cc(-c2ccc(S(=O)(=O)N3CCN(C[C@H](C)Nc4ncnc5c(N6CCCC6)cccc45)CC3)s2)on1` [Example 20, N-[(2S)-1-(4-{[5-(3-methyl-1,2-oxazol-5-yl)thiophen-2-yl]sulfonyl}piperazin-1-yl)propan-2-yl]-8-(pyrrolidin-1-yl)quinazolin-4-amine], for which the concentration for half-maximal inhibition (IC50) is < 10 nM.

In the case of `COC(=O)Nc1nc(C)c(S(=O)(=O)N2CCN(C[C@H](C)Nc3ncnc4c(-c5cccc(N6CCN(C)CC6)c5)cccc34)CC2)s1` [Example 35, methyl N-[4-methyl-5-({4-[(2S)-2-({8-[3-(4-methylpiperazin-1-yl)phenyl]quinazolin-4-yl}amino)propyl]piperazin-1-yl}sulfonyl)-1,3-thiazol-2-yl]carbamate], the half-inhibitory concentration (IC50) is < 10 nM. The same measure for `COC(=O)Nc1nc(C)c(S(=O)(=O)N2CCN(C[C@H](C)Nc3ncnc4c(-c5cn(C)nc5C)cccc34)CC2)s1` [Example 63, methyl N-[5-({4-[(2S)-2-{[8-(1,3-dimethyl-1H-pyrazol-4-yl)quinazolin-4-yl]amino}propyl]piperazin-1-yl}sulfonyl)-4-methyl-1,3-thiazol-2-yl]carbamate]: < 10 nM. Turning to `Cc1cc(-c2ccc(S(=O)(=O)N3CCN(C[C@H](C)Nc4ncnc5c(-c6cccnc6)cccc45)CC3)s2)on1` [Example 6, N-[(2S)-1-(4-{[5-(3-methyl-1,2-oxazol-5-yl)thiophen-2-yl]sulfonyl}piperazin-1-yl)propan-2-yl]-8-(pyridin-3-yl)quinazolin-4-amine], the 50% inhibitory concentration (IC50) is < 10 nM.

With `C[C@@H](CN1CCN(S(=O)(=O)c2ccc(Cl)c(Cl)c2)CC1)Nc1ncnc2c(-c3cccc(CN(C)C)c3)cccc12` [Example 46, N-[(2S)-1-[4-(3,4-dichlorobenzenesulfonyl)piperazin-1-yl]propan-2-yl]-8-{3-[(dimethylamino)methyl]phenyl}quinazolin-4-amine], the IC50 was < 10 nM.
